{"source": "patent US20050020668A1", "about": "“Combination comprising S-[2-([[1-(2-ethylbutyl)cyclohexyl] carbonyl]amino)phenyl] 2-methylpropanethioate and an HMG CoA reductase inhibitor” (Japan Tobacco Inc., priority 2003, published 2005)", "key": {"[1]": {"system": "male Japanese white rabbits receiving a high-cholesterol diet", "test": "Atherogenic index in rabbits receiving a high-cholesterol diet", "assay_type": "in vivo, rabbit", "conditions": "control group = 100%, in 0.2% cholesterol diet for 7 days: Compound I 0.5%", "experimental": "Prior to commencement of the study, male Japanese white rabbits (KITAYAMA LABES Co., Ltd.) received a normal diet (RC-4, manufactured by Oriental Bio-Service Inc.) (Time Period 1) and water ad libitum. For preliminary feeding, male Japanese white rabbits were provided with a high cholesterol diet comprising 100 g/day per rabbit of RC-4 containing 0.2% cholesterol (manufactured by Oriental Bio-Service Inc.) for 4 weeks (Time Period 2). […] For 7 days (Time Period 3), each group was administered a high cholesterol diet comprising 100 g/day per rabbit of RC-4 containing 0.2% cholesterol and one of the following: • (1) Control (no additional components) • (2) Compound I (0.5%) • (3) Simvastatin (extracted and purified from LipovasTM Tablets-5, Banyu Pharmaceutical Co.) (0.075%) • (4) Atorvastatin calcium trihydrate (extracted and purified from LipitorTM Tablets-10, Pfizer Inc.) (0.075%) • (5) Rosuvastatin calcium (extracted and purified from CrestorTM Tablets, Astra Zeneca) (0.025%) • (6) Compound I (0.5%)+simvastatin (0.075%) • (7) Compound I (0.5%)+atorvastatin calcium trihydrate (0.075%) • (8) Compound I (0.5%)+rosuvastatin calcium (0.025%) […] Atherogenic index was calculated as follows: [(total cholesterol content-HDL cholesterol content)/HDL cholesterol content]. […] A similar experiment was conducted to evaluate the effect of the administration of Compound I and pravastatin sodium ([…] Ltd.) on 12-week old male Japanese white rabbits receiving a high-cholesterol diet."}, "[2]": {"system": "patients with type II hyperlipidemia", "test": "Clinical study: Compound I added to pravastatin sodium therapy, lipid parameters", "assay_type": "in vivo, human", "conditions": "for Mean percent change of HDL-C from levels before administration of Compound I / Mean percent change of LDL-C from levels before administration of Compound I / Mean percent change of LDL-C/HDL-C ratio from levels before administration of Compound I / Mean percent change of TC/HDL-C ratio from levels before administration of Compound I: Visit 5 or 6 vs average of Visits 3 and 4, per protocol", "from_the_text": "(§1) This example describes a multi-center, randomized, double-blind, placebo-controlled, parallel group study designed to evaluate the therapeutic effect of the combination of S-[2-([[1-(2-ethylbutyl)cyclohexyl]carbonyl]amino)phenyl]2-methylpropanethioate (Compound I) and pravastatin sodium in patients with hyperlipidemia.\nApproximately 200 patients with type II hyperlipidemia were enrolled in the study to ensure that about 150 patients (about 50 patients per treatment group) completed the study. The patients met the following criteria: • (i) LDL-C>4.0 mmol/L (160 mg/dL), • (ii) HDL-C<1.6 mmol/L (60 mg/dL), • (iii) triglycerides<4.5 mmol/L (400 mg/dL), and • (iv) age 18-65 years.\n(§2) The total study duration was 16 weeks, which consisted of three periods. During Period 1, the first 8 weeks of the study, 40 mg of pravastatin sodium was taken once daily at bedtime by all enrolled patients. Patients were then randomized to receive placebo or 300 mg or 600 mg of Compound I once daily following breakfast for Period 2, the next 4-week period, in addition to the continued pravastatin sodium treatment. During Period 3, the last 4 weeks of the study, pravastatin sodium was administered alone.\nEach pravastatin sodium tablet comprised 40 mg of pravastatin sodium that was provided as a branded commercial product (Selektine™, Bristol-Myers Squibb B.V.). Each Compound I tablet contained 300 mg of Compound I and was supplied as a white oval tablet that is identical in appearance to the placebo tablet. The uncoated white tablets comprising Compound I were prepared using standard tableting procedures. The tablets comprised 300 mg of Compound I, 18 mg of hydroxypropylmethyl cellulose 2910 as a binder, 18 mg of talc and 1.2 mg of magnesium stearate as lubricants, and 119.8 mg of crospovidone and 90 mg of low-substituted hydroxypropyl cellulose as disintegrants.\nAll patients received 2 uncoated white tablets, such that each patient received either (a) one 300 mg Compound I tablet and one placebo tablet, (b) two 300 mg Compound I tablets, or (c) two placebo tablets during Period 2.\n(§3) Blood samples were taken at Visit 1 (−10 weeks relative to commencement of treatment with Compound I or placebo) to determine eligibility, and at Visit 2 (−8 weeks; commencement of treatment with pravastatin sodium), Visit 3 (−2 weeks), Visit 4 (commencement of treatment with Compound I or placebo), Visit 5 (+2 weeks after commencement of treatment with Compound I or placebo), Visit 6 (+4 weeks; end of treatment with Compound I or placebo), and Visit 7 (+8 weeks; end of treatment with pravastatin sodium). Each blood sample was tested for levels of lipid parameters (e.g., total cholesterol, triglycerides, HDL-C, LDL-C), CETP activity and mass, the plasma concentration of Compound I (trough level), as well as laboratory safety parameters (e.g., urinalysis, biochemistry, and hematology).\nEfficacy analyses included both descriptive summary and statistical modeling, such as analysis of variance (ANOVA) or analysis of covariance (ANCOVA). The descriptive summary included frequencies and percentages for categorical variables and statistics such as the number of available observations, mean, median, standard deviation, minimum, and maximum for all variables.\nTo determine the effect of the administration of Compound I on a patient receiving HMG CoA reductase inhibitor therapy, the mean values of HDL-C, LDL-C, TC/HDL-C ratio, LDL-C/HDL-C ratio, and CETP activity before administration of Compound I (average of values at Visits 3 and 4) and after the administration of Compound I (Visit 5 or 6) were compared. An ANOVA model containing treatment and center effects was used. […]"}, "CETP": {"target": "T1, CETP (Homo sapiens, UniProt P11597)", "T1 construct": "from tissue; host or cells: blood (plasma) samples of hyperlipidemic patients", "T1 sequence (P11597 18-493)": "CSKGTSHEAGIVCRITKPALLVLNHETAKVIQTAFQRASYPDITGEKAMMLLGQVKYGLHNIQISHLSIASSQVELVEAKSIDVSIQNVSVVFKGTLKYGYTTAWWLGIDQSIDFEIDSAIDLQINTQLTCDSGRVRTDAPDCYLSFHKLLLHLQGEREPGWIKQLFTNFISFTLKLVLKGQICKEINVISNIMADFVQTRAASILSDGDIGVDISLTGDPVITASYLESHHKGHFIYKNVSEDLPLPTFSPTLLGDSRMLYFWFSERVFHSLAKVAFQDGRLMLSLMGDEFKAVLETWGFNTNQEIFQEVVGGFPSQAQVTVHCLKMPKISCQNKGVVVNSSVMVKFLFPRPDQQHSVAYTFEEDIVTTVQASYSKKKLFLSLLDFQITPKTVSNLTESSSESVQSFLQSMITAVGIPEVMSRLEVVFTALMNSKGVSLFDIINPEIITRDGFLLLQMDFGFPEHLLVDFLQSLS", "test": "Clinical study: Compound I added to pravastatin sodium therapy, CETP activity in blood samples", "assay_type": "in vivo", "conditions": "for Mean percent change of CETP activity from levels before administration of Compound I: Visit 5 or 6 vs average of Visits 3 and 4, per protocol; for Decrease in CETP activity relative to levels achieved by pravastatin sodium alone: patients receiving pravastatin sodium therapy", "experimental": "CETP activity is measured essentially as described in Tollefson et al., Methods Enzymol., 129, 797-816 (1986), and Kato et al., J. Biol. Chem., 264, 4082-4087 (1989). Preferably, the CETP activity at 2 weeks (or 4 weeks, 8 weeks, 12 weeks, or six months) post-treatment initiation is decreased by about 5% or more relative to CETP activity pretreatment (e.g., about 7.5% or more, about 10% or more, about 15% or more, about 20% or more, about 25% or more, about 30% or more, about 35% or more, about 40% or more, about 45% or more, about 50% or more, about 55% or more, about 60% or more, or about 65% or more).\nas §1, §2\nas §3, with “hematology). […]” for “hematology).”\nTable 2 describes the percent change in HDL-C, LDL-C, TC/HDL-C ratio, LDL-C/HDL-C ratio, and CETP activity from the values of patients receiving pravastatin sodium therapy (average of Visit 3 and 4 values) to the values following administration of Compound I or placebo and pravastatin sodium (Visit 5 or 6). P values were determined by comparing the groups administered Compound I to the placebo group using an ANOVA model with percent change as the dependent variable and treatment and center as the fixed effects. […]"}, "[3]": {"conditions": "Table 3 experiment, simvastatin 0.075%, atorvastatin calcium trihydrate 0.075%, rosuvastatin calcium 0.025%, blood 8 hours after feeding on Day 7"}, "[4]": {"conditions": "Table 4 experiment, pravastatin sodium 0.075%"}, "[5]": {"conditions": "300 mg Compound I once daily + 40 mg pravastatin sodium, n = 45"}, "[6]": {"conditions": "300 mg treatment group, patients receiving pravastatin sodium therapy"}, "[7]": {"conditions": "600 mg Compound I once daily + 40 mg pravastatin sodium, n = 42"}, "[8]": {"conditions": "600 mg treatment group, patients receiving pravastatin sodium therapy"}}, "note": "Marks after values point to notes of the source that are not given here.", "data": [{"smiles": "CCC(C)(C)C(=O)O[C@H]1C[C@@H](C)C=C2C=C[C@H](C)[C@H](CC[C@@H]3C[C@@H](O)CC(=O)O3)[C@H]21", "note": "[Simvastatin]", "values": [{"measurement": "Atherogenic Index (%)", "setting": "[1]; [3]", "result": 51, "unit": "%"}]}, {"smiles": "CC(C)c1nc(N(C)S(C)(=O)=O)nc(-c2ccc(F)cc2)c1/C=C/[C@@H](O)C[C@@H](O)CC(=O)[O-].CC(C)c1nc(N(C)S(C)(=O)=O)nc(-c2ccc(F)cc2)c1/C=C/[C@@H](O)C[C@@H](O)CC(=O)[O-].[Ca+2]", "note": "[Rosuvastatin calcium]", "values": [{"measurement": "Atherogenic Index (%)", "setting": "[1]; [3]", "result": 81, "unit": "%"}]}, {"smiles": "CC(C)c1c(C(=O)Nc2ccccc2)c(-c2ccccc2)c(-c2ccc(F)cc2)n1CC[C@@H](O)C[C@@H](O)CC(=O)O", "note": "[Atorvastatin calcium trihydrate]", "values": [{"measurement": "Atherogenic Index (%)", "setting": "[1]; [3]", "result": 49, "unit": "%"}]}, {"smiles": "CC[C@H](C)C(=O)O[C@H]1C[C@H](O)C=C2C=C[C@H](C)[C@H](CC[C@@H](O)C[C@@H](O)CC(=O)O)[C@H]21", "note": "[Pravastatin sodium]", "values": [{"measurement": "Atherogenic Index (%)", "setting": "[1]; [4]", "result": 40, "unit": "%"}]}, {"smiles": "CCC(CC)CC1(C(=O)Nc2ccccc2SC(=O)C(C)C)CCCCC1", "note": "[Compound I, S-[2-([[1-(2-ethylbutyl)cyclohexyl]carbonyl]amino)phenyl]2-methylpropanethioate]", "values": [{"measurement": "Mean percent change of HDL-C from levels before administration of Compound I", "setting": "[2]; [5]", "result": "12.96* %"}, {"measurement": "Mean percent change of LDL-C from levels before administration of Compound I", "setting": "[2]; [5]", "result": 1.57, "unit": "%"}, {"measurement": "Mean percent change of LDL-C/HDL-C ratio from levels before administration of Compound I", "setting": "[2]; [5]", "result": "−10.31^† %"}, {"measurement": "Mean percent change of TC/HDL-C ratio from levels before administration of Compound I", "setting": "[2]; [5]", "result": "−8.09^† %"}, {"measurement": "Decrease in LDL-C/HDL-C ratio relative to levels achieved by pravastatin sodium alone", "setting": "[2]; [6]", "result": "about 10%"}, {"measurement": "Decrease in TC/HDL-C ratio relative to levels achieved by pravastatin sodium alone", "setting": "[2]; [6]", "result": "about 8%"}, {"measurement": "Increase in HDL-C levels relative to levels achieved by pravastatin sodium alone", "setting": "[2]; [6]", "result": "about 13%"}, {"measurement": "Mean percent change of HDL-C from levels before administration of Compound I", "setting": "[2]; [7]", "result": "28.43* %"}, {"measurement": "Mean percent change of LDL-C from levels before administration of Compound I", "setting": "[2]; [7]", "result": "−7.91^‡ %"}, {"measurement": "Mean percent change of LDL-C/HDL-C ratio from levels before administration of Compound I", "setting": "[2]; [7]", "result": "−26.03* %"}, {"measurement": "Mean percent change of TC/HDL-C ratio from levels before administration of Compound I", "setting": "[2]; [7]", "result": "−18.72* %"}, {"measurement": "Decrease in LDL-C levels relative to level achieved by pravastatin sodium alone", "setting": "[2]; [8]", "result": "about 8%"}, {"measurement": "Decrease in LDL-C/HDL-C ratio relative to levels achieved by pravastatin sodium alone", "setting": "[2]; [8]", "result": "about 26%"}, {"measurement": "Decrease in TC/HDL-C ratio relative to levels achieved by pravastatin sodium alone", "setting": "[2]; [8]", "result": "about 19%"}, {"measurement": "Increase in HDL-C levels relative to levels achieved by pravastatin sodium alone", "setting": "[2]; [8]", "result": "about 28%"}, {"measurement": "Mean percent change of CETP activity from levels before administration of Compound I", "setting": "CETP; [5]", "result": "−18.10* %"}, {"measurement": "Decrease in CETP activity relative to levels achieved by pravastatin sodium alone", "setting": "CETP; 300 mg treatment group", "result": "about 18%"}, {"measurement": "Mean percent change of CETP activity from levels before administration of Compound I", "setting": "CETP; [7]", "result": "−31.62* %"}, {"measurement": "Decrease in CETP activity relative to levels achieved by pravastatin sodium alone", "setting": "CETP; 600 mg treatment group", "result": "about 32%"}, {"measurement": "Atherogenic Index (%)", "setting": "[1]; [3]", "result": 54, "unit": "%"}, {"measurement": "Atherogenic Index (%)", "setting": "[1]; [4]", "result": 60, "unit": "%"}]}]}
